From US9550763B2, “Heterocyclic ring and carbocyclic derivative” (Shionogi & Co., Ltd., priority 2012, dated 2017)

target: human P2X3 receptor (Homo sapiens (Human), UniProt P56373); assay: Evaluation of human P2X3 receptor inhibitory activity (Test Example 1-2, FLIPR 384, 384-well, 150 nM ATP); type: cell-based; conditions: C6BU-1 cell transfected with human P2X3 receptor gene; method of Test Example 1-2 (compounds I-301 to I-483); read-out: IC50 (human P2X3 receptor inhibitory activity)
Experimental: Stably expressing cell line (C6BU-1 cell transfected with human P2X3 receptor gene (GenBank accession number Y07683) was used. The cells were seeded in a 384-well microtiter plate at a concentration of 3000 cells/well and cultured in the medium (7.0% fetal bovine serum, 7.0% horse serum, 1% antibiotic and antifungal in DMEM) for one day at 37° C. under 5% carbon dioxide atmosphere. The medium was replaced with 4 μM Fluo-3-AM solution (20 mM HEPES, […], 5.27 mM KCl, 0.9 mM MgCl2, 1.26 mM CaCl2, 5.6 mM D-glucose, 2.5 mM probenecid, 0.5% BSA, and 0.04% Pluronic F-127, pH 7.5) and incubated at 37° C. under 5% dioxide carbon atmosphere for one hour. The plate was washed with washing buffer (20 mM HEPES, 137 mM NaCl, 5.27 mM KCl, 0.9 mM MgCl2, 1.26 mM CaCl2, 5.6 mM D-glucose, 2.5 mM probenecid, pH7.5), and each well was added with 20 μL of this buffer. The plate was placed in High-Throughput Screening System FLIPR 384 (Molecular Device Co.). Measurement of fluorescence intensity by FLIPR 384 was started, and 20 μL of DMSO solutions containing different concentrations of the test compound as prepared by dilution with dilution buffer (20 mM HEPES, 137 mM NaCl, 5.27 mM KCl, 0.9 mM MgCl2, 1.26 mM CaCl2, 5.6 mM D-glucose, 2.5 mM probenecid, 0.1% Pluronic F-127, pH 7.5) were dispensed to each well through the built-in automatic dispenser. Five minutes after, 150 nM ATP solution (25 μL) prepared by dilution with the dilution buffer was dispensed through the built-in automatic dispenser, and the measurement of fluorescence intensity was continued for 4 min. For each well, the specific maximum fluorescence intensity was calculated as the ratio of the maximum fluorescence intensity after addition of the ATP solution to the fluorescence intensity at the starting of the measurement. The 50% inhibitory concentration (IC50) was calculated under the assumption that the specific maximum fluorescence intensity without test compound is 0% inhibition and that the specific maximum fluorescence intensity when the dilution buffer was added in place of ATP solution is 100% inhibition, to evaluate the inhibitory activity of the test compound. The specific maximum fluorescence intensity and IC50 were calculated using Spotfire (Science & Technology Systems, Inc.)
The data of the compounds I-001 to I-300 are the results by the method mentioned in Test Example 1-1, and the data of the compounds I-301 to I-483 are the results by the method mentioned in Test Example 1-2.

Sequence of human P2X3 receptor (P56373 whole entry): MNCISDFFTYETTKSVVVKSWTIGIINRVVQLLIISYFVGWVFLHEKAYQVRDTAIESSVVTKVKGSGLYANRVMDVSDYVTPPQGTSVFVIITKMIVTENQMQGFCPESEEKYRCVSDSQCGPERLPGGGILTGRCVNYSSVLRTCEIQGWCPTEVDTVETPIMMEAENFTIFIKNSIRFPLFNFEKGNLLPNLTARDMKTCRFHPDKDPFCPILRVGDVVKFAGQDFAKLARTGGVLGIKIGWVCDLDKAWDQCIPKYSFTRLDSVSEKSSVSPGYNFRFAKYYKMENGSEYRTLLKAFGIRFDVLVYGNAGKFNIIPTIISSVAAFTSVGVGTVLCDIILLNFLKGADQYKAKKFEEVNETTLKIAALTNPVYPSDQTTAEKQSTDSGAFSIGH

IC50 | Structure (SMILES)
< 30000 nM | CN(C)c1ncc(Nc2ccc(Oc3ccc(F)cn3)cc2)c(Cc2ccc(F)cc2)n1 [Compound I-481, 2-dimethylamino-4-(4-fluorobenzyl)-5-[4-(5-fluoro-2-pyridyloxy)phenylamino]pyrimidine]
< 30000 nM | CSc1ncc(Nc2ccc(Oc3ccc(F)cn3)cc2)c(Cc2ccc(F)cc2)n1 [Compound I-479]
< 30000 nM | O=C(O)c1cccc(Oc2ccc(Nc3nc4ccccc4n3Cc3ccc(F)cc3)cc2)n1 [Compound I-470]

same assay, conditions: human P2X3 receptor in C6BU-1 cells; Test Example 1-2 (compounds I-301 to I-483); read-out: P2X3 IC50

Structure (SMILES) | IC50
Cc1cc(NC(=O)c2cn(Cc3ccc(Cl)cc3)c(Nc3ccc(Oc4cccc(F)n4)cc3)nc2=O)no1 [Compound I-371] | 80 nM
CC(C)c1c[nH]/c(=N\c2ccc(Oc3ccnc(C(=O)O)c3)cc2)n(Cc2ccc(Cl)cc2)c1=O [Compound I-409] | 24 nM
NC(=O)c1cccc(Oc2ccc(/N=c3\[nH]cc(N4CCCC4=O)c(=O)n3Cc3ccc(Cl)cc3)cc2)n1 [Compound I-335] | 227 nM
CCCc1c[nH]/c(=N\c2ccc(Oc3cccc(C#N)n3)cc2)n(Cc2ccc(Cl)cc2)c1=O [Compound I-434] | 193 nM
Cc1nnc(-c2c[nH]/c(=N\c3ccc(Oc4cccc(C(=O)O)n4)cc3)n(Cc3ccc(Cl)cc3)c2=O)o1 [Compound I-328] | 11 nM
Cc1nc(Nc2cc(=O)n(CC(C)(C)C(=O)O)c(=O)n2Cc2ccc(Cl)cc2)ccc1Oc1ccc(F)cn1 [Compound I-365] | 5 nM
CC(C)(C)c1c[nH]/c(=N\c2ccc(Oc3cccc(C(N)=O)n3)cc2)n(Cc2ccc(Cl)cc2)c1=O [Compound I-482] | 251 nM
CCCn1c(=O)cc(Nc2ccc(Oc3cccc(C(=O)O)c3)c(C)n2)n(Cc2ccc(C)cc2)c1=O [Compound I-474] | 5 nM
O=C(O)c1cccc(Oc2ccc(/N=c3\[nH]cc(-c4ccccc4)c(=O)n3Cc3ccc(Cl)cc3)cc2)n1 [Compound I-422] | 3 nM
O=C(NCC1CC1)c1c[nH]/c(=N\c2ccc(Oc3cccc(F)n3)cc2)n(Cc2ccc(Cl)cc2)c1=O [Compound I-407] | 68 nM
O=C(NCC1CCCC1)c1cn(Cc2ccc(Cl)cc2)c(Nc2ccc(Oc3cccc(F)n3)cc2)nc1=O [Compound I-393] | 110 nM
CCn1c(=O)[nH]c(Nc2ccc(Oc3cccc(C#N)n3)cc2)c(Cc2ccc(Cl)cc2)c1=O [Compound I-456, 5-(4-chlorobenzyl)-6-[4-(6-cyano-2-pyridyloxy)phenylamino]-3-ethylpyrimidin-2,4(1H,3H)-dione] | 9 nM
CN(C)C(=O)c1c[nH]/c(=N\c2ccc(Oc3ccon3)cc2)n(Cc2ccc(Cl)cc2)c1=O [Compound I-346] | 346 nM
COc1cn(Cc2ccc(Cl)cc2)c(Nc2ccc(Oc3cccc(C(N)=O)n3)cc2)nc1=O [Compound I-403] | 243 nM
CC(C)c1c[nH]/c(=N\c2ccc(Oc3ncc(C(=O)O)s3)cc2)n(Cc2ccc(Cl)cc2)c1=O [Compound I-412] | 9 nM
COc1cn(Cc2ccc(Cl)cc2)c(Nc2ccc(Oc3cccc(C(=O)O)n3)cc2)nc1=O [Compound I-404] | 102 nM
COc1cn(Cc2ccc(Cl)cc2)c(Nc2ccc(Oc3cccc(C#N)n3)cc2)nc1=O [Compound I-350] | 405 nM
Cc1nc(Nc2cc(=O)n(CC(F)(F)C(=O)O)c(=O)n2Cc2ccc(Cl)cc2)ccc1Oc1ccc(F)cn1 [Compound I-405] | 5 nM
O=C(O)c1coc(-c2c[nH]/c(=N\c3ccc(Oc4ccon4)cc3)n(Cc3ccc(Cl)cc3)c2=O)n1 [Compound I-454] | 160 nM
O=C(O)c1cccc(Oc2ccc(/N=c3\[nH]cc(Br)c(=O)n3Cc3ccc(Cl)cc3)cc2)n1 [Compound I-440] | 15 nM
CCCn1c(=O)c(F)c(Nc2ccc(Oc3cccc(C(=O)O)c3)cc2)n(Cc2ccc(Cl)cc2)c1=O [Compound I-303] | 109 nM
Cc1c[nH]c2cc(Nc3ncc(NC(=O)C4CCOCC4)c(=O)n3Cc3ccc(Cl)cc3)ccc12 [Compound I-413] | 897 nM
O=c1c(Nc2ccon2)c[nH]/c(=N\c2ccc(Oc3ccc(F)cn3)cc2)n1Cc1ccc(Cl)cc1 [Compound I-318] | 27 nM
